Assays:
[1] = molecular target: T1, mouse GPR40 (Mus musculus, UniProt Q76JU9); assay: Mouse GPR40 IP1 accumulation assay; format: cell-based
T1 construct: expressed in transfected cells; host or cells: CHO-K1 (methods)
Method in brief: (§1)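 IP1 accumulation is measured by HTRF after 60 min compound stimulation at room temperature in LiCl (50 mM)-containing buffer. Compounds run in ½-log dilutions from a final top concentration of 10 μM or 1 μM. Cells are hGPR40/HEK293, mGPR40/CHO-K1 and rGPR40/CHO-K1. Activity is scaled between DMSO and a partial allosteric agonist and fitted to a 4-parameter curve for EC50 and maximum.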

[2] = molecular target: T2, human GPR40 (Homo sapiens, UniProt O14842); assay: Human GPR40 IP1 accumulation assay; format: cell-based; design: expressed in transfected cells
Protocol: Stable cell lines expressing human GPR40 (hGPR40/HEK293), mouse GPR40 (mGPR40/CHO-K1), and rat GPR40 (rGPR40/CHO-K1) were cultured in DMEM media supplemented with 10% FBS, glutamine, non-essential amino acids, and penicillin/streptomycin. hGPR40/HEK293 & mGPR40/CHO-K1 cell media was supplemented with […] G418 (Life Technologies), while rGPR40/CHO-K1 cells were grown in […] blasticidin plus […] hygromycin (Life Technologies). Cell stocks were maintained and grown in a sub-confluent state using standard cell culture procedures. The day before the experiment, the cells were harvested with non-enzymatic cell dissociation buffer and re-suspended in DMEM supplemented with 10% FBS, glutamine, non-essential amino acids, penicillin/streptomycin at 0.15, 0.2 and 0.3 million cells per ml for human, mouse, and rat GPR40, respectively. […] The seeded plates were incubated overnight at 37 C.
On the day of the experiment, the growth media was removed from the assay by gently patting the assay plates on an absorbent sheet and 10 μl of IP1 stimulation buffer (Cis Bio IP-one Tb HTRF kit) supplemented with 50 mM LiCl is added to each well. Test compounds dissolved in DMSO were serially diluted in ½ log increments starting from 2 mM or 0.2 mM and 50 nl of the compound dilution was acoustically added to each well (final starting concentration 10 μM or 1 μM). Plates were then incubated for 60 minutes at room temperature and 10 μl of detection buffer (prepared as described in the Tb kit) is added to each well. The plates are then incubated one additional hour at room temperature. […] For each assay, a standard curve plate in which IP1 is titrated is also included. […] The percent activity at each concentration of test compound is determined using 0% activation (basal activity) determined in those wells that contain DMSO alone, while 100% activity is determined in wells that contained a concentration of a partial allosteric agonist know to activate GPR40. The % activity is then plotted versus the concentration of test compound and the dose response curve fitted to a standard 4-parameter non-linear regression model using a custom in-house developed software package (Merck & Co., Inc., MRL, Kenilworth, NJ, USA). Maximal % activity and EC50 are then determined for each test compound.

[3] = molecular target: T2, human GPR40; assay: GPR40 binding assay, partial agonist tracer [3H]L358; design: expressed in transfected cells; host or cells: CHO / CHO-K1 cells, membrane preparation
Protocol: Two small molecule tracers, the partial agonist [3H][…] and the AgoPAM [3H]25, are used to measure compound affinity at each site as described previously. Because of the allosteric coupling of the two sites and the nature of the assay, addition of a compound will either displace (binds to same site) or augment (binds to allosterically coupled site) radiotracer. Membranes expressing GPR40 were prepared from CHO cells stably expressing human GPR40. […] Sigma P8830) and were homogenized in 50 ml aliquots with a motor-driven glass Dounce homogenizer, 15 strokes at 1900 rpm on wet ice, repeating once. Homogenates were centrifuged at 2200 rpm for 10 min at 4°C. Supernatants were carefully removed and pooled. Homogenization and centrifugation were repeated until the debris pellet was translucent to maximize membrane recovery. Supernatants were then centrifuged at […] rpm for 20 min. at 4°C. […] Protein concentration was determined by Pierce BCA kit. […] The beads and membrane mixture is then vigorously mixed for 30 minutes at room temperature prior to addition to the assay. […] Next, 15 μl of the radioligand and 35 μl of the beads/membranes solution is added to each well. The assay plates are then sealed and incubated for 30 minutes at room temperature on an orbital shaker. The plates are allowed to settle for 16 hours and then counted on a TopCount scintillation counter (PE). […] Maximal % bound and IC50 are then determined for each test compound. 5 μg/well membrane together with 200 μg/well of PVT WGA SPA beads (GE #RPNG-0001) were suspended in a white 96 well plate with a final concentration of 50 μl/well in assay buffer (50 mM Tris, 10 mM MgCl2, and 2 mM EDTA). […] The plate is briefly mixed and incubated for 3-18 h at room temperature, before it is read on a MicroBeta plate counter (Perkin Elmer, MS, USA).

[4] = molecular target: T3, rat GPR40 (Rattus norvegicus, UniProt Q8K3T4); assay: Rat GPR40 IP1 accumulation assay; format: cell-based
T3 construct: expressed in transfected cells; host or cells: CHO-K1 (methods)
Method in brief: as §1

[5] = maximal % activity vs in-house partial agonist control

T2 sequence (O14842 whole entry): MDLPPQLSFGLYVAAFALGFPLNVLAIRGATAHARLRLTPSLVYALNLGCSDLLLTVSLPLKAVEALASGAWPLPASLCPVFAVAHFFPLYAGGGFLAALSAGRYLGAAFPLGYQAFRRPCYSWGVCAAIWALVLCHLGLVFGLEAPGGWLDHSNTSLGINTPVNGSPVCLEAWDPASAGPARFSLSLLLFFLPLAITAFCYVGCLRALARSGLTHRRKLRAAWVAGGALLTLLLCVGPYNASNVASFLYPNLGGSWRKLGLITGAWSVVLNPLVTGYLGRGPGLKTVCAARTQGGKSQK
T3 sequence (Q8K3T4 whole entry): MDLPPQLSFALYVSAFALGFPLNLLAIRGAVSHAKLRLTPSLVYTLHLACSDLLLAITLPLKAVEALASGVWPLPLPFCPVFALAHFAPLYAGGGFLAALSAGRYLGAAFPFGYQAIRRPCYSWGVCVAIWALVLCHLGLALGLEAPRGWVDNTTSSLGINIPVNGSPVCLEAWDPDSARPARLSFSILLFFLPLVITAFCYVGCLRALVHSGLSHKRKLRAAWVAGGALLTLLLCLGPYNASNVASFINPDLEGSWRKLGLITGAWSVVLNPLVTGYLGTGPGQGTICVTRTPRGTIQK
T1 sequence (Q76JU9 whole entry): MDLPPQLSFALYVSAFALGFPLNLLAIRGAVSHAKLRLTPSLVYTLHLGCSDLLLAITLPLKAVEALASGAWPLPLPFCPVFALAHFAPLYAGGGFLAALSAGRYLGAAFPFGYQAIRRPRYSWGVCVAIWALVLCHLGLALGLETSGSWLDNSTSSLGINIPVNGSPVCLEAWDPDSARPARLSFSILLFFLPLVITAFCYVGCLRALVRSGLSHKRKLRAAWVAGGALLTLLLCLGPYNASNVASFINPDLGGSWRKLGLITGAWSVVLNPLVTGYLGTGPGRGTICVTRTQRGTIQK

## O=C1NC(=O)C(C2CCOc3cc(Oc4ccc(C(F)(F)F)cc4Cl)ccc32)S1 (stereo not drawn) [MK-2305, reference compound]
[1]; [5]
  Efficacy (% Activation), Mouse: (157%)
[1]; mean ± SD, n = 2–20, IP accumulation, read-out: Potency [EC50, nM] ± SD, Mouse
  EC50: 2.6 ± 0.8 nM
[2]; [5]
  Efficacy (% Activation), Human: (85%)
[2]; mean ± SD, n = 2–20, IP accumulation, read-out: Potency [EC50, nM] ± SD, Human
  EC50: 24 ± 13 nM
[3]; WT human GPR40, maximal % (not defined)
  Binding Results, % in parentheses, [^3H]L-358: (108%)
[3]; WT human GPR40, n = 2–13, read-out: Binding Results [IC50, nM], [^3H]L-358
  IC50: 17 ± 4.7 nM
[3]; human GPR40 membranes, competition binding
  binding of [^3H]L358: displace
[4]; [5]
  Efficacy (% Activation), Rat: (155%)
[4]; mean ± SD, n = 2–20, IP accumulation, read-out: Potency [EC50, nM] ± SD, Rat
  EC50: 5.2 ± 2.5 nM
